Where a name gives a salt, the structure may show the parent alone.
Experiments:
5-Lipoxygenase = experiment: 5-Lox assay (colorimetric, ferric xylenol orange); type: biochemical; conditions: linoleic acid substrate, pH 6.3; for % inhibition @ 100 μM: 100 μM test substance; for % inhibition @ 250 μM: 250 μM test substance
Experimental: The AKBA analogs were screened for their 5-Lipoxygenase inhibitory potential using colorimetric method of Craig A. Gay et al (Anal Biochem., 304, 42 46, 2002). The assay mixture contained 50 mM phosphate buffer pH 6.3, 5-Lipoxygenase, various concentrations of test substances and linoleic acid in a total volume of 0.5 mL after 5 min incubation of above reaction mixture 0.5 ml ferric xylenol orange reagent was added and OD was measured after two minutes at 585 nm using spectrophotometer (varian). Controls were run along with test in a similar manner except using vehicle instead of test substance solution. Percent inhibition was calculated by comparing absorbance of test with that of control

Artemia salina = experiment: Brine shrimp lethality (BSL) assay; type: in vivo; conditions: nauplii, viability/mortality after 24 hr; for LC50: Artemia salina, read-out: LD50 in mcM
From the text: Brine shrimp lethality (BSL) assay is a simple bench top bioassay developed by McLaughlin, et. al. (Studies in Natural Product Chemistry, 9, page 383, 1991 and Am. Chem. Soc. Symp. Series, 534, page 114, 1992) and the results obtained by this assay have been reported to be corroborative with the cytotoxicities determined in 9KB and 9PS cells. The procedure involves hatching Artemia salina cysts in a cone shaped vessel and collecting active nauplii after 48 hr and treating with known concentrations of test substances and vehicle (control) in tubes each tube containing 10 nauplii and checking viability/mortality after 24 hr. Percentage lethality was calculated by comparing mean values of control and test sets of three tubes each. LC50 values were obtained from the graph plotted micro molar concentration against percent lethality.

5-LO = molecular target: T1, 5-LO (Homo sapiens, UniProt P09917); conditions: compared with the six boswellic acids; cited from earlier work
T1 sequence (P09917 1-674): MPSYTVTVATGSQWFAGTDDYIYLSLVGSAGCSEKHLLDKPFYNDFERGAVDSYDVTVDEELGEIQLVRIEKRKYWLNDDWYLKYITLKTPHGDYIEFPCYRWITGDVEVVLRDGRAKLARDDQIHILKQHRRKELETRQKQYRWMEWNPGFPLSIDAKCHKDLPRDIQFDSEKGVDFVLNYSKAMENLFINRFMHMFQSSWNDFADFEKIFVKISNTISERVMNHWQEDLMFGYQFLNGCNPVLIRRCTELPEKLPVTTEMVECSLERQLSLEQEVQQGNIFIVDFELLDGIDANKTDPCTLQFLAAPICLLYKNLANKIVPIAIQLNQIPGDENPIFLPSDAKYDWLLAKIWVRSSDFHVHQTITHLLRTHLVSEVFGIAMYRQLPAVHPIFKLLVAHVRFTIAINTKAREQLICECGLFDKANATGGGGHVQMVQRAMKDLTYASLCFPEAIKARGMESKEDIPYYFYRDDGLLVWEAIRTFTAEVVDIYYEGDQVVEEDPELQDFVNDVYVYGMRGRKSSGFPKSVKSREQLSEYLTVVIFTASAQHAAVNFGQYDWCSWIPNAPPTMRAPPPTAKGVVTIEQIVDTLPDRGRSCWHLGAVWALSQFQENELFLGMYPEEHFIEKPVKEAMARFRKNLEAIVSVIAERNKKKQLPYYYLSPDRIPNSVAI

Compound	% inhibition @ 100 μM (5-Lipoxygenase) [%]	LC50 (Artemia salina) [µM]	LD50 in mcM (Artemia salina) [mcM]	% inhibition @ 250 μM (5-Lipoxygenase) [%]	inhibitory activity against 5-LO (in words) (5-LO)
CC(=O)OC1CC[C@@]2(C)C(CC[C@]3(C)C2C(=O)C=C2C4[C@@H](C)[C@H](C)CC[C@]4(C)CC[C@]23C)[C@@]1(C)C(=O)OCCN(C)C (stereo partly drawn) [Compound 18, (2′-N,N-Dimethylaminoethyl) 3-O-acetyl-11-keto-β-boswellate]	25.4	> 100			
CC(=O)OC1CCC2(C)C(CCC3(C)C2C(=O)C=C2C4C(C)C(C)CCC4(C)CCC23C)C1(C)C(=O)N1CCNCC1 (stereo not drawn) [Compound 23, N-(3-O-Acetyl-11-keto-β-boswelloyl)-piperzine]	34.9		0.88		
COC(=O)[C@]1(C)C2CC[C@]3(C)C(C(=O)C=C4C5[C@@H](C)[C@H](C)CC[C@]5(C)CC[C@]43C)[C@@]2(C)CC[C@@H]1O (stereo partly drawn) [Compound 12, Methyl 3β-hydroxy-11-ketours-12-en-24-oate]		> 100		0.37	
COC(=O)[C@@]1(C)/C(=N\O)CC[C@@]2(C)C1CC[C@]1(C)C2C(=O)C=C2C3[C@@H](C)[C@H](C)CC[C@]3(C)CC[C@]21C (some centres unmarked) [Compound 16, Methyl 3-oximino-11-ketours-12-en-24-oate]		> 100		41.6	
3-O-Acetyl-11-keto-β-boswellic acid [Compound B2, reference compound]	18.7		5.5	31	most pronounced inhibitory activity against 5-LO
CC1CCC2(C)CCC3(C)C(=CC(=O)C4C5(C)CCC(OC(=O)C=Cc6ccc(O)cc6)C(C)(C(=O)O)C5CCC43C)C2C1C (stereo not drawn) [Compound 6, 3-O-[4′-Hydroxycinnamoyl]-11-keto-β-boswellic acid]			6.0	11.3	
CC(=O)OC1CC[C@@]2(C)C(CC[C@]3(C)C2C(=O)C=C2C4[C@@H](C)[C@H](C)CC[C@]4(C)CC[C@]23C)[C@@]1(C)C(=O)NN (stereo partly drawn) [Compound 20, N-(3-O-Acetyl-11-keto-β-boswelloyl)-hydrazide]		2.3		54.3	
CC1CCC2(C)CCC3(C)C(=CC(=O)C4C5(C)CCC(OC=O)C(C)(C(=O)O)C5CCC43C)C2C1C (stereo not drawn) [Compound 1, 3-O-Formyl-11-keto-β-boswellic acid]			55.0	5.5	
CC(=O)OC1CC[C@@]2(C)C(CC[C@]3(C)C2C(=O)C=C2C4[C@@H](C)[C@H](C)CC[C@]4(C)CC[C@]23C)[C@@]1(C)C(=O)NCCN (stereo partly drawn) [Compound 21, N-(3-O-Acetyl-11-keto-β-boswelloyl)-ethylenediamine]		71		76.6	
COC(=O)[C@]1(C)C2CC[C@]3(C)C(C(=O)C=C4C5[C@@H](C)[C@H](C)CC[C@]5(C)CC[C@]43C)[C@@]2(C)CC[C@H]1S (stereo partly drawn) [Compound 15, Methyl 3α-thiohydroxy-11-ketours-12-en-24-oate]		5.2		53.1	
C[C@@H]1CC[C@]2(C)CC[C@]3(C)C(=CC(=O)C4[C@@]5(C)CCC(OC(=O)CCl)[C@](C)(C(=O)O)C5CC[C@]43C)C2[C@H]1C (stereo partly drawn) [Compound 2, 3-O-(Chloroacetyl)-11-keto-β-boswellic acid]		98		3.12	
COC(=O)[C@@]1(C)C(C#N)CC[C@@]2(C)C1CC[C@]1(C)C2C(=O)C=C2C3[C@@H](C)[C@H](C)CC[C@]3(C)CC[C@]21C (stereo partly drawn) [Compound 14, Methyl 3α-cyano-11-ketours-12-en-24-oate]		> 100		3.71	
CC(=O)OC1CC[C@@]2(C)C(CC[C@]3(C)C2C(=O)C=C2C4[C@@H](C)[C@H](C)CC[C@]4(C)CC[C@]23C)[C@@]1(C)N (some centres unmarked) [Compound 25, 3-Acetoxy-4-amino-11-keto-24-norurs-12-ene]		6		60.5	
C[C@@H]1CC[C@]2(C)CC[C@]3(C)C(=CC(=O)C4[C@@]5(C)CC[C@@H](OC(=O)CN)[C@](C)(C(=O)O)C5CC[C@]43C)C2[C@H]1C (stereo partly drawn) [Compound 10, 3-O-Glycyl-11-keto-β-boswellic acid hydrochloride]	23.9		12.0		
CC(=O)OC1CC[C@@]2(C)C(CC[C@]3(C)C2C(=O)C=C2C4[C@@H](C)[C@H](C)CC[C@]4(C)CC[C@]23C)[C@@]1(C)C(=O)NCCO (stereo partly drawn) [Compound 22, N-(3-O-Acetyl-11-keto-β-boswelloyl)-2-aminoethanol]		> 100		10.4	
COC(=O)C1(C)C(OC(=O)CNC(=O)OC(C)(C)C)CCC2(C)C1CCC1(C)C2C(=O)C=C2C3C(C)C(C)CCC3(C)CCC21C (stereo not drawn) [Compound 9, Methyl 3-O-(N-Boc-glycyl)-11-keto-β-boswellate]			>100	16.7	
COc1cc(C(=O)O[C@@H]2CC[C@@]3(C)C(CC[C@]4(C)C3C(=O)C=C3C5[C@@H](C)[C@H](C)CC[C@]5(C)CC[C@]34C)[C@@]2(C)C(=O)O)cc(O)c1O (stereo partly drawn) [Compound 3, 3-O-(5′-O-methylgalloyl)-11-keto-β-boswellic acid]	27.4	33			
CC1CCC2(C)CCC3(C)C(=CC(=O)C4C5(C)CCC(OC(=O)CCC(=O)O)C(C)(C(=O)O)C5CCC43C)C2C1C (stereo not drawn) [Compound 4, 3-O -Succinyl-11-keto-β-boswellic acid]			69.0	41.1	
C[C@@H]1CC[C@]2(C)CC[C@]3(C)C(=CC(O)C4[C@@]5(C)CC[C@@H](O)[C@](C)(C(=O)O)C5CC[C@]43C)C2[C@H]1C (stereo partly drawn) [Compound 27, 11-Hydroxy-β-boswellic acid]		28.3		12.2	
COC(=O)[C@]1(C)C2CC[C@]3(C)C(C(=O)C=C4C5[C@@H](C)[C@H](C)CC[C@]5(C)CC[C@]43C)[C@@]2(C)CC[C@@H]1Br (stereo partly drawn) [Compound 13, Methyl 3β-bromo-11-ketours-12-en-24-oate]		> 100		17.6	
COc1ccc(C=CC(=O)OC2CCC3(C)C(CCC4(C)C3C(=O)C=C3C5C(C)C(C)CCC5(C)CCC34C)C2(C)C(=O)O)cc1OC (stereo not drawn) [Compound 7, 3-O -(3′,4′-dimethoxycinnamoyl)-11-keto-β-boswellic acid]			6.2	17.8	
C[C@H](N)C(=O)O[C@@H]1CC[C@@]2(C)C(CC[C@]3(C)C2C(=O)C=C2C4[C@@H](C)[C@H](C)CC[C@]4(C)CC[C@]23C)[C@@]1(C)C(=O)O (stereo partly drawn) [Compound 11, 3-O-Alanyl-11-keto-β-boswellic acid hydrochloride]	33.6		29.0		
CC(=O)OC1CC[C@@]2(C)C(CC[C@]3(C)C2C(=O)C=C2C4[C@@H](C)[C@H](C)CC[C@]4(C)CC[C@]23C)[C@@H]1C (some centres unmarked) [Compound 17, 3-Acetoxy-11-keto-24-norurs-12-ene]		> 100		0	
CC(=O)OC1CC[C@@]2(C)C(CC[C@]3(C)C2C(=O)C=C2C4[C@@H](C)[C@H](C)CC[C@]4(C)CC[C@]23C)[C@@]1(C)C(N)=O (stereo partly drawn) [Compound 19, 3-O-Acetyl-11-keto-β-boswellic acid amide]		4.6		35.8	
CC(=O)OC1CC[C@@]2(C)C(CC[C@]3(C)C2C(=O)C=C2C4[C@@H](C)[C@H](C)CC[C@]4(C)CC[C@]23C)[C@@]1(C)C#N (some centres unmarked) [Compound 26, 3-Acetoxy-4-cyano-11-keto-24-norurs-12-ene]		> 100		9.8	
COc1cc(C=CC(=O)OC2CCC3(C)C(CCC4(C)C3C(=O)C=C3C5C(C)C(C)CCC5(C)CCC34C)C2(C)C(=O)O)cc(O)c1O (stereo not drawn) [Compound 8, 3-O-(3′,4′-Dihydroxy-5′-methoxycinnamoyl)-11-keto-β-boswellic acid]			12.0	8.1	
CC(=O)OC1CC[C@@]2(C)C(CC[C@]3(C)C2C(=O)C=C2C4[C@@H](C)[C@H](C)CC[C@]4(C)CC[C@]23C)[C@@]1(C)N=C=O (some centres unmarked) [Compound 24, 3-Acetoxy-11-keto-24-norurs-12-en-4-isocyanate]		> 100		0	

— US20090318551A1, “USES OF ANALOGS OF 3-O-ACETYL-11-KETO-BETA-BOSWELLIC ACID” (priority 2004, published 2009)
